Experimental data: the supplement of paper PMC10307832

What was measured:
Experiment in all cases: relative viability (nuclei count vs DMSO), 5 days (fraction); higher = more cells survive
[1] = compound: C1CC1C(=O)NC2=NNC3=C2C=CC(=C3)C4=CC(=CC=C4)C(=O)NC5CC5 [XMD13-2] + N=C(N)NC(=N)NCCc1ccccc1 [Phenformin] (partner 250 µM)
Outline: (§1)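 Lung cancer cell lines, seeded in 1536-well plates, were treated the following day by pin tool with a single drug or with five library-drug doses (not always all listed) in √10 steps on top of a fixed anchor-drug dose. Cells were fixed and nuclei stained in one step after 5 days, and nuclei were counted. Relative viability is the nuclei count for treated wells divided by that for vehicle wells, reported as medians of duplicate plates.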

[2] = compound: Cc1ccc(C(=O)Nc2cccc(C(F)(F)F)c2)cc1Nc1cncc(C(N)=O)c1 [ALW-II-49-7] + CC(=O)c1c(C)c2cnc(Nc3ccc(N4CCNCC4)cn3)nc2n(C2CCCC2)c1=O [Palbociclib] (partner 0.5 µM)
Outline: as §1

[3] = compound: Cc1ccc(C(=O)Nc2cccc(C(F)(F)F)c2)cc1Nc1cncc(C(N)=O)c1 [ALW-II-49-7] + C[C@@H](Oc1cc(-c2cnn(C3CCNCC3)c2)cnc1N)c1c(Cl)ccc(F)c1Cl [Crizotinib] (partner 1 µM)
Outline: as §1

[4] = compound: Cc1nc(Nc2ncc(C(=O)Nc3c(C)cccc3Cl)s2)cc(N2CCN(CCO)CC2)n1 [Dasatinib] + COc1cc2c(Oc3ccc(NC(=O)C4(C(=O)Nc5ccc(F)cc5)CC4)cc3F)ccnc2cc1OCCCN1CCOCC1 [Foretinib] (partner 0.25 µM)
Outline: as §1

Cell Line	relative viability ([1]; first compound 0.05 µM)	relative viability ([1]; first compound 0.1581 µM)	relative viability ([1]; first compound 0.5 µM)	relative viability ([1]; first compound 1.581 µM)	relative viability ([1]; first compound 5 µM)	relative viability ([2]; first compound 0.08 µM)	relative viability ([2]; first compound 0.253 µM)	relative viability ([2]; first compound 0.8 µM)	relative viability ([2]; first compound 2.53 µM)	relative viability ([2]; first compound 8 µM)	relative viability ([3]; first compound 0.08 µM)	relative viability ([3]; first compound 0.253 µM)	relative viability ([3]; first compound 0.8 µM)	relative viability ([3]; first compound 2.53 µM)	relative viability ([3]; first compound 8 µM)	relative viability ([4]; first compound 0.005 µM)	relative viability ([4]; first compound 0.01581 µM)	relative viability ([4]; first compound 0.05 µM)	relative viability ([4]; first compound 0.1581 µM)	relative viability ([4]; first compound 0.5 µM)
NCI-H2228	0.346	0.37	0.295	0.313	0.362	0.602	0.416	0.645	0.812	0.596	0.541	0.505	0.423	0.483	0.27	0.853	0.614	0.766	0.51	0.407
NCI-H2347	0.615	0.507	0.404	0.26	0.51	0.528	0.452	0.43	0.432	0.478	0.683	0.69	0.676	0.671	0.583	0.625	0.504	0.436	0.378	0.495
NCI-H2405	0.436	0.417	0.411	0.397	0.438	0.507	0.591	0.488	0.532	0.468	0.928	0.806	0.832	0.826	0.68	0.983	0.714	0.564	0.304	0.233
NCI-H3122	0.612	0.37	0.4	0.374	0.353	0.223	0.212	0.191	0.397	0.227	0.309	0.272	0.271	0.331	0.307	0.932	0.871	0.955	0.942	0.567
PC-3 [JPC-3]	0.5	0.49	0.48	0.523	0.54	0.536	0.595	0.546	0.561	0.558	0.854	0.979	1.05	1.06	1.01	1.05	1.02	1.05	0.948	0.434
PC-14	0.635	0.794	0.556	0.478	0.838	0.454	0.568	0.471	0.551	0.41	0.911	0.953	0.841	0.863	0.866	0.981	0.948	0.912	0.712	0.335
RERF-LC-KJ	0.5	0.435	0.446	0.407	0.396	1.04	1.07	1.04	0.998	1.08	0.831	0.924	0.992	0.831	0.741	0.888	0.831	0.989	0.824	0.779
SK-LU-1	0.609	0.528	0.594	0.592	0.525	0.332	0.35	0.337	0.26	0.323	0.863	0.898	0.988	0.853	0.584	0.543	0.343	0.295	0.171	0.179
SK-MES-1	0.699	0.657	0.696	0.598	0.644	0.344	0.314	0.284	0.315	0.22	0.885	0.979	0.948	0.926	0.7	1.01	0.73	0.687	0.482	0.231
SW 1573	0.443	0.385	0.384	0.26	0.24	0.347	0.489	0.373	0.347	0.319	0.884	0.747	0.748	1.1	0.707	1.05	0.746	0.783	0.695	0.525
